Experimental data: patent publication US20260345582A1, “PRODRUG FOR ANTI-AGING RELATED DISEASES AND USE METHOD THEREOF” (Beijing SunCell Bio-Medical Co., Ltd., priority 2022, published 2026)
pIC50: −log10 of the molar value. Values belong to the compound of their own block, whether it stands above or below them.

Key:
[1] = tested on: A549 cells (human non-small cell lung cancer cell), induced senescent with Cisplatin; assay: in vitro killing of induced senescent A549 cells (CCK-8); type: cell-based; settings: induced senescent A549 cell model, FIG. 1A
Source text: A. The killing results of some selected compounds in the in vitro compound library screening on the induced senescent A549 cell model. Wherein, MZ-1, dBET6, ARV-825, I-BET726, I-BET151, and INCB057643 are all BET inhibitors; A1331852 and A1155463 are novel Bcl-xL inhibitors; Dasatinib, Quercetin, Fisetin, Curcumin are the familiar active drugs or natural products.
B. Comparison of the killing effects of three Bcl-xL inhibitors on the induced senescent A549 cell model. A549 represents the normal uninduced A549 cell group; and A549-CDDP represents the senescent A549 cell group induced with Cisplatin (CDDP) in vitro.
(§1) Induction of the Cellular Senescence

[2] = tested on: senescent A549 cells; assay: cell killing activity assay, senescent A549 cells (Example 7); type: cell-based, human; settings: for selective killing of the senescent cells: A549-induced senescence model, three days, CCK-8, FIG. 7
Experimental: as §1
(§2) Cell Killing Activity Assay
(§3) Preparation of the cell plates: The non-senescent, and the induced senescent HEF cells and A549 cells were taken respectively, digested with trypsin, and centrifuged at 1000 rmp for 5 minutes. The supernatants were removed, and the cells were resuspended in fresh DMEM medium containing 10% foetal bovine serum for counting. The cell density was adjusted so that the density of the non-senescent cells was at 4000 cells/100 μL and the density of the senescent cells was at 7000 cells/100 μL. The cell suspension was added to the 96-well transparent cell culture plates at 100 μL per well. Note that the edge wells of the 96-well plate were not used for the test wells, and 300 μL PBS is added separately to reduce the medium evaporation. The cell-spread 96-well plates were put back into the incubator at 37 °C for the overnight incubation until the cells adhered to the wall.
Formulation of the drug concentration gradients: After the cells adhered to the wall on the second day, the small molecule compounds (d-12, d-11, and d-4) to be tested for activity are ready to be added. […] 3 parallel replicate wells were set up for each test drug concentration. The 96-well plate was put back into the incubator at 37 °C, and the cell survival was tested after three days.
Detection of the cell survival after the drug treatment using the CCK-8 method: Three days after the addition of the drug, the well plate was removed, the supernatant was discarded, and 100 μL of the pre-prepared CCK-8 working solution was added to each well. The CCK-8 working solution was obtained by diluting the CCK8 stock solution (C0041, Beyotime) with the serum-free DMEM medium in 10-fold volume. The 96-well plate added with the CCK-8 working solution was put back to the incubator at 37 °C and incubated for 0.5-2 hours. The plate was taken out to determine the absorbance value (OD value) of each well at the wavelength of 450 nm. The cell viability in each experimental group was calculated. […]

[3] = tested on: senescent HEF cells; assay: cell killing activity assay, senescent HEF cells (Example 7); type: cell-based, human; settings: HEF-induced senescence model, three days, CCK-8, FIG. 7
Experimental: as §1, §2
as §3, with “Note that the edge wells of the 96-well plate were not used for the test wells, and 300 μL PBS is added separately to reduce the medium evaporation. The cell-spread 96-well plates were put back into the incubator at 37 °C for the overnight incubation until the cells adhered to the wall.” left out
(§4) Formulation of the drug concentration gradients: After the cells adhered to the wall on the second day, the small molecule compounds (d-12, d-11, and d-4) to be tested for activity are ready to be added. […]
(§5) Detection of the cell survival after the drug treatment using the CCK-8 method: Three days after the addition of the drug, the well plate was removed, the supernatant was discarded, and 100 μL of the pre-prepared CCK-8 working solution was added to each well. […] The plate was taken out to determine the absorbance value (OD value) of each well at the wavelength of 450 nm. The cell viability in each experimental group was calculated. […]

[4] = tested on: non-senescent A549 cells; assay: cell killing activity assay, non-senescent A549 cells (Example 7); type: cell-based, human; settings: non-senescent A549, highest concentration (25 μM)
Experimental: as §1, §2
as §3, with “Note that the edge wells of the 96-well plate were not used for the test wells, and 300 μL PBS is added separately to reduce the medium evaporation. The cell-spread 96-well plates were put back into the incubator at 37 °C for the overnight incubation until the cells adhered to the wall.” left out
as §4, §5

[5] = tested on: non-senescent HEF cells; assay: cell killing activity assay, non-senescent HEF cells (Example 7); type: cell-based, human; settings: highest concentration (25 μM)
Experimental: as §1, §2
as §3, with “Note that the edge wells of the 96-well plate were not used for the test wells, and 300 μL PBS is added separately to reduce the medium evaporation. The cell-spread 96-well plates were put back into the incubator at 37 °C for the overnight incubation until the cells adhered to the wall.” left out
as §4, §5

[6] = tested on: senescent cells (A549 and HEF); assay: cell killing activity assay, senescent A549 and HEF cell models (Example 7); type: cell-based, human; settings: FIG. 7
Experimental: as §1, §2
as §3, with “Note that the edge wells of the 96-well plate were not used for the test wells, and 300 μL PBS is added separately to reduce the medium evaporation. The cell-spread 96-well plates were put back into the incubator at 37 °C for the overnight incubation until the cells adhered to the wall.” left out
as §4, §5

[7] = liver microsomal metabolic stability, human; settings: Fu and RB assumed to be 1
Experimental: (§6) Hepatic Microsomal Metabolic Stability
(§7) A13bGa1 was co-incubated with the mouse, rat, canine, monkey and human […] and the incubation medium at a final drug concentration of 1 μM in the incubation system for 60 minutes. Samples were taken and analyzed at time points 0, 15, 30, 45 and 60 minutes during the incubation. The reaction was terminated by adding an amount of acetonitrile solution containing the internal standard. […] The residual percentage, half-life, intrinsic clearance, amplified clearance, hepatic clearance and hepatic extraction ratio were determined. The entire experiment was performed in triplicate. All data calculations were performed by Microsoft Excel software. Peak areas were detected by extracting the ionic spectrum. The in vitro half-life (t1/2) of the parent compound was detected by fitting the natural logarithm of the percentage elimination of the parent compound linearly to time.
(§8) The in vitro intrinsic clearance (in μL/min/mg protein) was calculated using the following equation: in vitro CLint=kV/N
(§9) The amplified clearance (in mL/min/kg) was calculated using the following equation: Amplified CLint=kV/N×the amplification factor
(§10) The hepatic clearance (in mL/min/kg) was calculated using the following equation: The predicted hepatic CLH=(Q×Fu/RB×the amplified CLint)/(Q+Fu/RB×the amplified CLint) • V=the incubation volume per well (0.2 mL); • N=the total amount of protein (mg) • Q=the hepatic blood flow (mL/min/kg) • Fu=the plasma free rate (assumed to be 1) • RB=the whole blood partition coefficient (assumed to be 1)
(§11) The hepatic uptake rate was calculated using the following equation:
(§12) The hepatic extraction ratio (ER)=(the predicted hepatic CLH)/Q

[8] = liver microsomal metabolic stability, monkey; settings: Fu and RB assumed to be 1
Experimental: as §6, §7, §8, §9, §10, §11, §12

[9] = liver microsomal metabolic stability, canine; settings: canine; Fu and RB assumed to be 1
Experimental: as §6, §7, §8, §9, §10, §11, §12

[10] = liver microsomal metabolic stability, rat; settings: Fu and RB assumed to be 1
Experimental: as §6, §7, §8, §9, §10, §11, §12

[11] = liver microsomal metabolic stability, mouse; settings: Fu and RB assumed to be 1
Experimental: as §6, §7, §8, §9, §10, §11, §12

Structure (SMILES): CN(C)CC#Cc1ccc(OCCCc2sc(N3CCc4cccc(C(=O)Nc5nc6ccccc6s5)c4C3)nc2C(=O)O)c(F)c1 [Compound A1155463]
- senescent cell killing activity and selectivity, compound screening [1]: good senescent cell killing activity and selectivity in vitro

Structure (SMILES): Cc1sc2c(c1C)C(c1ccc(Cl)cc1)=N[C@@H](CC(=O)NCCCCCCCCNC(=O)COc1cccc3c1C(=O)N(C1CCC(=O)NC1=O)C3=O)c1nnc(C)n1-2 (stereo partly shown) [dBET6]
- senescent cell killing activity and selectivity, compound screening [1]: better in vitro killing activity

Structure (SMILES): Cc1c(-c2ccc(N3CCc4cccc(C(=O)Nc5nc6ccccc6s5)c4C3)nc2C(=O)OC(Cc2cn(CCCN3CCOCC3)nn2)c2ccc(O[C@@H]3O[C@H](CO)[C@H](O)[C@H](O)[C@H]3O)c([N+](=O)[O-])c2)cnn1CC12CC3CC(CC(C3)C1)C2 (stereo partly drawn) [d-12]
- selective killing of the senescent cells [2]: selective killing of the senescent cells
- pIC50 ([2]; Homo sapiens, 72 h, Cisplatin-induced senescent A549, three days, CCK-8): ~5.16
- selective killing of the senescent cells [3]: selective killing of the senescent cells
- killing of the non-senescent cells [4]: none of the three molecules killed the non-senescent cells
- killing of the non-senescent cells [5]: none of the three molecules killed the non-senescent cells
- relative activity in killing the senescent cells among the three molecules [6]: relatively more active in killing the senescent cells

Structure (SMILES): CC(=O)OC[C@H]1O[C@@H](Oc2ccc(C(Cc3cn(CCCN4CCOCC4)nn3)OC(=O)c3nc(N4CCc5cccc(C(=O)Nc6nc7ccccc7s6)c5C4)ccc3-c3cnn(CC45CC6CC(CC(C6)C4)C5)c3C)cc2[N+](=O)[O-])[C@H](OC(C)=O)[C@@H](OC(C)=O)[C@H]1OC(C)=O (stereo partly drawn) [d-11]
- selective killing of the senescent cells [2]: selective killing of the senescent cells
- selective killing of the senescent cells [3]: selective killing of the senescent cells
- killing of the non-senescent cells [4]: none of the three molecules killed the non-senescent cells
- killing of the non-senescent cells [5]: none of the three molecules killed the non-senescent cells

- The predicted intrinsic hepatic clearance Clint [7]: 20.16 mL/min/kg
- The predicted intrinsic hepatic clearance Clint [8]: 42.08 mL/min/kg
- The predicted intrinsic hepatic clearance Clint [9]: 30.44 mL/min/kg
- The predicted intrinsic hepatic clearance Clint [10]: 52.33 mL/min/kg
- The predicted intrinsic hepatic clearance Clint [11]: 87.82 mL/min/kg
Structure (SMILES): O=c1ccc2ccc(O)cc2o1 [7-hydroxycoumarin, reference compound]

Structure (SMILES): Cc1sc2c(c1C)C(c1ccc(Cl)cc1)=N[C@@H](CC(=O)Nc1ccc(OCCOCCOCCOCCNc3cccc4c3C(=O)N(C3CCC(=O)NC3=O)C4=O)cc1)c1nnc(C)n1-2 (stereo partly shown) [ARV825]
- senescent cell killing activity and selectivity, compound screening [1]: better in vitro killing activity

Structure (SMILES): Cc1ncsc1-c1ccc(CNC(=O)[C@@H]2C[C@@H](O)CN2C(=O)[C@@H](NC(=O)COCCOCCOCCNC(=O)C[C@@H]2N=C(c3ccc(Cl)cc3)c3c(sc(C)c3C)-n3c(C)nnc32)C(C)(C)C)cc1 [MZ1]
- senescent cell killing activity and selectivity, compound screening [1]: better in vitro killing activity
